Measured values reported in patent publication US20200199689A1, “Method for Predicting Effectiveness of Angiogenesis Inhibitor” (Eisai R&D Management Co., Ltd., priority 2011, published 2020).

Tested on: human melanoma cell line grafted mouse models
Test: Anti-tumor effect of angiogenesis inhibitor on mouse model grafted with melanoma cell line
Assay type: in vivo, nude mouse
Details: 100 mg/kg/day orally, 7th day after initiation of administration
Method: The human melanoma cell lines used in Example 1 were respectively cultured in the mediums shown in the column of “Culture medium” (containing 10% FBS) of Table 6 until about 80% confluency was obtained (in an incubator under 5% carbon dioxide gas). After culturing, cells were collected by trypsin-EDTA treatment in accordance with a conventional method. The cells were suspended with a phosphate buffer or a matrigel solution (mixture of phosphate buffer and matrigel in a common ratio of 1:1) to prepare suspension solution of 1×10^8 cells/mL or 5×10^7 cells/mL. The cell suspension (0.1 mL) was subcutaneously grafted to the side of the body of each nude mouse. In this manner, human melanoma cell line grafted mouse models were prepared.
After grafting, from the time point when a tumor volume reached about 200 mm^3, a mesylate of 4-(3-chloro-4-(cyclopropylaminocarbonyl)aminophenoxy)-7-methoxy-6-quinolinecarboxamide (hereinafter referred to as E7080) (100 mg/kg/day) was orally administered. The major axis and minor axis of the tumor were measured everyday by Digimatic Caliper (Mitsutoyo). The tumor volume and specific tumor volume were calculated in accordance with the following formula and thereby the anti-tumor effect (ΔT/C) of an angiogenesis inhibitor on the mouse model was measured.
Tumor volume (TV)=tumor longest diameter (mm)×tumor short diameter^2 (mm^2)/2
Anti-tumor effect (ΔT/C)=(TV of medicinal drug administered group−TV before initiation of administration)/(TV of control group−TV before initiation of administration)×100
In FIG. 1, the same cell lines used in Example 1 were used.

SMILES: COc1cc2nccc(Oc3ccc(NC(=O)NC4CC4)c(Cl)c3)c2cc1C(N)=O [E7080, 4-(3-Chloro-4-(cyclopropylaminocarbonyl)aminophenoxy)-7-methoxy-6-quinolinecarboxamide]
- Anti-tumor effect (ΔT/C) (melanoma cells where BRAF has a mutation and PTEN has no mutation): 45%
- Anti-tumor effect (ΔT/C) (melanoma cells where both of BRAF and PTEN are wild type): 16%
- Anti-tumor effect (ΔT/C) (melanoma cells where both of BRAF and PTEN have a mutation or loss of expression): 23%
